Test results taken from paper PMC9820478, “The Active Site of the Enzyme 10-Formyl-THFDH in the Honey Bee Apis mellifera—A Key Player in Formic Acid Detoxification” (International Journal of Molecular Sciences, 2022).

Experiments:
Test in all cases: NADPH formation at […] nm, plate reader, Michaelis-Menten nonlinear fit
Assay type in all cases: biochemical
Settings in all cases: 200 µM NADP+, 100 mM beta-mercaptoethanol, Tris/HCl pH 7.6, 30 °C; WT values said to accord with the authors' earlier paper [22]
[1] = molecular target: T1, 10-formyl-THFDH (Amel_10-formyl-THFDH) (Apis mellifera, UniProt A0A7M7GVR6)
T1 construct: gene LOC551401; full-length ORF, N-terminal 6xHis tag (MHHHHHHAQLKVA...) not reported cleaved, baculovirus expression in Hi5 insect cells, Ni-NTA purified
T1 sequence (A0A7M7GVR6 entry or part of it): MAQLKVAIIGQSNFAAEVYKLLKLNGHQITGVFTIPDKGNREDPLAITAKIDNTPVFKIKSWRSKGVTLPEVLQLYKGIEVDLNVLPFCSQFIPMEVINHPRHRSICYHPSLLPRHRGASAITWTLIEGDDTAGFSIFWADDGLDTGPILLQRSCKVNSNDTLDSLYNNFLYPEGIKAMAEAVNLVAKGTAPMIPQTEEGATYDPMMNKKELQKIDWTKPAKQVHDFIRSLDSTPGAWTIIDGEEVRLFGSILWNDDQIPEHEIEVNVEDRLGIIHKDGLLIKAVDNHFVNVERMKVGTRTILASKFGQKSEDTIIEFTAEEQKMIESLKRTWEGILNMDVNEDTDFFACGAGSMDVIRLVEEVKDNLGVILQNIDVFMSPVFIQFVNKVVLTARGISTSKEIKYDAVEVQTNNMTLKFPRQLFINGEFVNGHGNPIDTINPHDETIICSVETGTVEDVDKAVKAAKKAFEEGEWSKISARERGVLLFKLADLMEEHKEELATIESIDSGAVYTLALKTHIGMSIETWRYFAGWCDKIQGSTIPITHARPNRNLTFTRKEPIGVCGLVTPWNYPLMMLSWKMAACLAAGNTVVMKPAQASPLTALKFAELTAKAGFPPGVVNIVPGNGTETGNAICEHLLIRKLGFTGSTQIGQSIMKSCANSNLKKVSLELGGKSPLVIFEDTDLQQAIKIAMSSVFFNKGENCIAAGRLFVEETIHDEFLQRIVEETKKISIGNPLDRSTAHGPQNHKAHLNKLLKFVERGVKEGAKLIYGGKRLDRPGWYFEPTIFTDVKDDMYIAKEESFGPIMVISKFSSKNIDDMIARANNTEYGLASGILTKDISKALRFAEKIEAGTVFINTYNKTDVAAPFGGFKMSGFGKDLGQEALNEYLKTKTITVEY

[2] = molecular target: T1, 10-formyl-THFDH (Amel_10-formyl-THFDH); remark: listed apart in the source
[3] = molecular target: T1, 10-formyl-THFDH (Amel_10-formyl-THFDH); remark: listed apart in the source
[4] = molecular target: T1, 10-formyl-THFDH (Amel_10-formyl-THFDH); remark: listed apart in the source

Compound: Nc1nc2c(c(=O)[nH]1)NC(CN(C=O)c1ccc(C(=O)N[C@@H](CCC(=O)O)C(=O)O)cc1)CN2 (stereo partly shown) [10-formyl-THF]
- NADPH formation at 340 nm, plate reader, Michaelis-Menten nonlinear fit [1]: The mutations lost their activity almost entirely
- Km [2]: 9.6 µM
- NADPH formation at 340 nm, plate reader, Michaelis-Menten nonlinear fit [3]: The mutations lost their activity almost entirely
- NADPH formation at 340 nm, plate reader, Michaelis-Menten nonlinear fit [4]: The mutations lost their activity almost entirely
